Measured values published in article PMC4845010, “Three TaFAR genes function in the biosynthesis of primary alcohols and the response to abiotic stresses in Triticum aestivum” (Scientific Reports, 2016).

Molecular target: T1, TaFAR3 (Triticum aestivum, UniProt A0A142IX60)
T1 construct: gene FAR3; full-length ORF, 497 residues (1,494 bp), untagged expression from pYES2/pYES3 in Saccharomyces cerevisiae; gene on chromosome 4BS
T1 sequence (A0A142IX60 1-497): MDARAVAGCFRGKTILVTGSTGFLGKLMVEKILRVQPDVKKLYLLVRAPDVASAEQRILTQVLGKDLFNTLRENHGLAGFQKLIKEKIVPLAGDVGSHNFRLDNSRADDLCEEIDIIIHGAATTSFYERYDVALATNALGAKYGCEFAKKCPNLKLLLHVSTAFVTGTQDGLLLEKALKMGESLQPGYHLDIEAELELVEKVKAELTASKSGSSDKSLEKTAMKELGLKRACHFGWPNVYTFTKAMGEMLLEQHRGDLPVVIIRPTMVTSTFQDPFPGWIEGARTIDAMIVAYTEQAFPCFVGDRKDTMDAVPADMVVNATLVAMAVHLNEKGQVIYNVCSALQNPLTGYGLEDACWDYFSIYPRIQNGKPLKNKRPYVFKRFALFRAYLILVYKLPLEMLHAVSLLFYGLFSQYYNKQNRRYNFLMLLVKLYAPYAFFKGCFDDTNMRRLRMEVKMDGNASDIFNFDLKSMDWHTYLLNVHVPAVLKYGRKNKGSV
Assay: heterologous expression in yeast, lipid extraction, TLC and GC-MS
Assay type: cell-based
Conditions: yeast mutant INVSur4# (Sur4 F262A/K266L); endogenous acyl-CoA substrates; none in empty-vector control

## CCCCCCCCCCCCCCCCCCCCCCCCCCCCO [C28:0-OH]
  heterologous expression in yeast, lipid extraction, TLC and GC-MS: In the case of TaFAR3, the highest production of primary alcohol was C28:0-OH
